Measurements taken from the supplement of paper PMC13380429.

Columns and labels:
Settings in all cases: 72 h
HepG2 [1] = experiment: relative viability EC50 (midpoint between 100% and the lowest measured viability); higher = less toxic
U2OS [2] = experiment: as above
Vero E6 [3] = experiment: as above
Calu-3 [4] = experiment: as above
Caco-2 [5] = experiment: as above
HepG2 [6] = experiment: cell viability relative to DMSO; higher = less toxic
U2OS [7] = experiment: as above
Vero E6 [8] = experiment: as above
Calu-3 [9] = experiment: as above
Caco-2 [10] = experiment: as above
HepG2 [11] = experiment: drug sensitivity score (DSS) for viability; higher = more toxic; extreme values may be limits of the assay
U2OS [12] = experiment: as above
Vero E6 [13] = experiment: as above
Calu-3 [14] = experiment: as above
Caco-2 [15] = experiment: as above

| SMILES | relative viability EC50 (HepG2 [1]) [µM] | relative viability EC50 (U2OS [2]) [µM] | relative viability EC50 (Vero E6 [3]) [µM] | relative viability EC50 (Calu-3 [4]) [µM] | relative viability EC50 (Caco-2 [5]) [µM] | cell viability (HepG2 [6]; 1 nM) [%] | cell viability (HepG2 [6]; 10 nM) [%] | cell viability (HepG2 [6]; 100 nM) [%] | cell viability (HepG2 [6]; 1000 nM) [%] | cell viability (HepG2 [6]; 10000 nM) [%] | cell viability (U2OS [7]; 1 nM) [%] | cell viability (U2OS [7]; 10 nM) [%] | cell viability (U2OS [7]; 100 nM) [%] | cell viability (U2OS [7]; 1000 nM) [%] | cell viability (U2OS [7]; 10000 nM) [%] | cell viability (Vero E6 [8]; 1 nM) [%] | cell viability (Vero E6 [8]; 10 nM) [%] | cell viability (Vero E6 [8]; 100 nM) [%] | cell viability (Vero E6 [8]; 1000 nM) [%] | cell viability (Vero E6 [8]; 10000 nM) [%] | cell viability (Calu-3 [9]; 1 nM) [%] | cell viability (Calu-3 [9]; 10 nM) [%] | cell viability (Calu-3 [9]; 100 nM) [%] | cell viability (Calu-3 [9]; 1000 nM) [%] | cell viability (Calu-3 [9]; 10000 nM) [%] | cell viability (Caco-2 [10]; 1 nM) [%] | cell viability (Caco-2 [10]; 10 nM) [%] | cell viability (Caco-2 [10]; 100 nM) [%] | cell viability (Caco-2 [10]; 1000 nM) [%] | cell viability (Caco-2 [10]; 10000 nM) [%] | drug sensitivity score (HepG2 [11]) | drug sensitivity score (U2OS [12]) | drug sensitivity score (Vero E6 [13]) | drug sensitivity score (Calu-3 [14]) | drug sensitivity score (Caco-2 [15]) |
| --- | --- | --- | --- | --- | --- | --- | --- | --- | --- | --- | --- | --- | --- | --- | --- | --- | --- | --- | --- | --- | --- | --- | --- | --- | --- | --- | --- | --- | --- | --- | --- | --- | --- | --- | --- |
| CC#CCC(C)[C@H](O)/C=C/[C@@H]1[C@H]2C/C(=C/CCCC(=O)O)C[C@H]2C[C@H]1O (stereo not given in full) [iloprost] | > 10 | > 10 | > 10 | > 10 | > 10 | 97.8 | 90.6 | 106 | 97.1 | 98.2 | 96 | 101 | 93.3 | 98.4 | 94 | 96.2 | 101 | 97 | 98.8 | 99.3 | 99.3 | 96.8 | 85 | 91.5 | 103 | 92.2 | 105 | 100 | 95.2 | 105 | 0 | 0 | 0 | 0 | 0 |
| CC(=O)Nc1nnc(S(N)(=O)=O)s1 [acetazolamide] | > 10 | > 10 | > 10 | > 10 | > 10 | 105 | 103 | 105 | 105 | 98 | 103 | 101 | 95.7 | 104 | 97.2 | 102 | 101 | 97.9 | 89.9 | 99.9 | 103 | 104 | 97.5 | 99.2 | 94.3 | 97.5 | 97.7 | 95.2 | 96.6 | 92.4 | 0 | 0 | 0 | 0 | 0 |
| C[C@H]1CC[C@H](n2c3cnccc3c3cnc(Nc4ccc5c(n4)CCN(C(=O)CO)C5)nc32)CC1 [AMG-925] | > 10 | > 10 | > 10 | > 10 | > 10 | 105 | 90.3 | 113 | 100 | 101 | 98.8 | 100 | 97.1 | 99.4 | 96.7 | 99.6 | 92.8 | 96.1 | 95.9 | 104 | 95.1 | 109 | 100 | 109 | 93 | 112 | 95.5 | 96.4 | 95.3 | 91.3 | 0 | 0 | 0 | 0 | 0 |
| CC[N+](CC)(CC(=O)Nc1c(C)cccc1C)Cc1ccccc1 [denatonium-benzoate] | > 10 | > 10 | > 10 | > 10 | > 10 | 100 | 99.3 | 108 | 100 | 116 | 91 | 96.1 | 95.9 | 103 | 104 | 95.1 | 99.2 | 95.3 | 88.9 | 111 | 96.7 | 101 | 98.3 | 92.8 | 105 | 100 | 102 | 99.8 | 110 | 112 | 0 | 0 | 0 | 0 | 0 |
| O=c1c(O)c(-c2cc(O)c(O)c(O)c2)oc2cc(O)cc(O)c12 [myricetin] | > 10 | > 10 | > 10 | > 10 | > 10 | 96.9 | 91.9 | 106 | 94.4 | 96.3 | 93.6 | 105 | 97.4 | 99.6 | 103 | 94.1 | 97.7 | 95.4 | 95.8 | 97.5 | 105 | 98.5 | 96 | 102 | 105 | 97.2 | 99.2 | 98.8 | 101 | 96 | 0 | 0 | 0 | 0 | 0 |
| Cc1c(C(=O)NN2CCOCC2)nn(-c2ccc(Cl)cc2Cl)c1-c1ccc(I)cc1 [AM-281] | > 10 | > 10 | > 10 | > 10 | > 10 | 105 | 95.7 | 102 | 101 | 103 | 96.9 | 101 | 95.5 | 100 | 100 | 98.3 | 96.6 | 98.4 | 94.5 | 106 | 102 | 113 | 104 | 94.5 | 88.1 | 96.8 | 100 | 96.2 | 96.2 | 107 | 0 | 0 | 0 | 0.2 | 0 |
| Clc1cccc(Nc2nnc(-c3ccccc3)c3ccccc23)c1 [MY-5445] | > 10 | > 10 | > 10 | > 10 | > 10 | 104 | 98.4 | 107 | 104 | 103 | 95 | 98.2 | 95.6 | 99.8 | 101 | 96.6 | 96.7 | 95.8 | 92.1 | 106 | 95.2 | 97.7 | 88.2 | 104 | 104 | 93 | 104 | 94.7 | 104 | 97.9 | 0 | 0 | 0 | 0 | 0 |
